Test results taken from patent publication US5827837A, “Polyanion anti-inflammatory agents” (priority 1996, dated 1998).
“Also recorded” adds a separate entry of the source. Like-named read-outs stand apart in the source and are kept apart here. Blank lines part the entries; values can stand above or below the molecule they belong to.

Legend:
[1] = molecular target: T1, L-selectin-lg fusion protein (Homo sapiens, UniProt P14151); test: Competition ELISA: binding of L-selectin-Ig to immobilized BSA-sLe^x
T1 construct: Each selectin-lg contains the lectin domain, epidermal growth factor domain, and one (L-selectin-lg), two (P-selectin-lg) or six (E-selectin-lg) complement regulatory repeats; made in house
From the text: Selectin-lg fusion proteins are recombinant chimeric molecules containing extracellular regions of selectins coupled to the hinge, CH2, and CH3 regions of human IgG1 (Aruffo, A., et al., Cell, 67:35, 1991; Walz, G., et al., Science, 250:1132, 1990). Each selectin-lg contains the lectin domain, epidermal growth factor domain, and one (L-selectin-lg), two (P-selectin-lg) or six (E-selectin-lg) complement regulatory repeats of the parent molecules. DNAs encoding selectin-Ig inserted in pCDM7 allowed transient expression of recombinant proteins in COS cells as previously described (Seed, B., et al., Proc. Natl. Acad. Sci., U.S.A., 84:3365, 1987; Aruffo, A., Current Protocols In Molecular Biology, eds. Ausubel, F. M., et al, 16:13.1, Greene Publishing Associates and Wiley-lnterscience, New York, N.Y., 1992). These DNAs were also ligated into pNUT (Palmiter, R. D., et al, Cell, 50:435, 1987) for amplification and stable expression in BHK cells. The fusion proteins were affinity purified from culture media using protein A (Pierce Chemical Company, Rockford, Ill.) or protein G (Pharmacia, Piscataway, N.J.) Sepharose, as previously described (Aruffo, A., et al., Cell, 67:35, 1991; Aruffo, A., Current Protocols In Molecular Biology, eds. Ausubel, F. M., et al, supra, 1992). Competition binding ELISAs using P- and E-selectin-lg were performed essentially as described (Nelson, R. M., et al., J. Clin. […] Selectin concentrations were from 10 to 30 nM. […] To increase L-selectin binding, an assay similar to that previously described was used (Foxall, C., et al., J. Cell Biol., 117:895, 1992), in which the L-selectin-lg (10-20 nM) was allowed to form aggregates with HRP-conjugated anti-lg antibody for 30 minutes prior to addition of inositols and incubation on the BSA-sLe^x -coated plate. IC50 values were calculated by fitting binding data to the equation: fraction of maximal binding=IC50 […] using nonlinear least squares analysis software (Origin, Microcal Inc, Northampton, Mass.). InsP6 (dodecasodium salt), InsS6 (hexapotassium salt), myo-inositol 1 monophosphate (cyclohexylammonium salt), and myo-inositol were from Sigma Chemical Company (St. Louis, Mo.). Stock solutions were prepared daily in 0.9% NaCl and sterilized by 0.22 μm filtration. InsP6 solutions were adjusted at pH 7.4 with HCl.
(§1) L-, P-, or E-selectin-lg fusion proteins were incubated for 2-3 hours on microtiter plates coated with the neoglycoprotein BSA-sLe^x, the plates washed, and bound selectin-lg was detected using a peroxidase-conjugated antibody directed against the lg portion and a chromogenic substrate. To determine blocking activity, solution-phase lnsP6 (.circle-solid.), InsS6 (.largecircle.), or inositol (.box-solid.) at the indicated concentrations were added to the solutions containing selectin-Ig fusion proteins prior to transfer to microtiter plates (competition ELISA).

inflammation = details: rodent model; cited from earlier work
[2] = molecular target: T2, P-selectin-lg fusion protein (Homo sapiens, UniProt P16109); test: Competition ELISA: binding of P-selectin-Ig to immobilized BSA-sLe^x
T2 construct: Each selectin-lg contains the lectin domain, epidermal growth factor domain, and one (L-selectin-lg), two (P-selectin-lg) or six (E-selectin-lg) complement regulatory repeats; made in house
From the text: (§2) Selectin-lg fusion proteins are recombinant chimeric molecules containing extracellular regions of selectins coupled to the hinge, CH2, and CH3 regions of human IgG1 (Aruffo, A., et al., Cell, 67:35, 1991; Walz, G., et al., Science, 250:1132, 1990). Each selectin-lg contains the lectin domain, epidermal growth factor domain, and one (L-selectin-lg), two (P-selectin-lg) or six (E-selectin-lg) complement regulatory repeats of the parent molecules. DNAs encoding selectin-Ig inserted in pCDM7 allowed transient expression of recombinant proteins in COS cells as previously described (Seed, B., et al., Proc. Natl. Acad. Sci., U.S.A., 84:3365, 1987; Aruffo, A., Current Protocols In Molecular Biology, eds. Ausubel, F. M., et al, 16:13.1, Greene Publishing Associates and Wiley-lnterscience, New York, N.Y., 1992). These DNAs were also ligated into pNUT (Palmiter, R. D., et al, Cell, 50:435, 1987) for amplification and stable expression in BHK cells. The fusion proteins were affinity purified from culture media using protein A (Pierce Chemical Company, Rockford, Ill.) or protein G (Pharmacia, Piscataway, N.J.) Sepharose, as previously described (Aruffo, A., et al., Cell, 67:35, 1991; Aruffo, A., Current Protocols In Molecular Biology, eds. Ausubel, F. M., et al, supra, 1992). Competition binding ELISAs using P- and E-selectin-lg were performed essentially as described (Nelson, R. M., et al., J. Clin. Invest., 91:1157, 1993), except that the assay buffer was 20 mM HEPES pH 7.4, 150 mM NaCl, 2 mM CaCl2, and 0.25 mM thimerosal, containing 10 mg/ml BSA, protease-free, (Miles Inc., Kankakee, Ill.). Selectin concentrations were from 10 to 30 nM. […] To increase L-selectin binding, an assay similar to that previously described was used (Foxall, C., et al., J. Cell Biol., 117:895, 1992), in which the L-selectin-lg (10-20 nM) was allowed to form aggregates with HRP-conjugated anti-lg antibody for 30 minutes prior to addition of inositols and incubation on the BSA-sLe^x -coated plate. IC50 values were calculated by fitting binding data to the equation: fraction of maximal binding=IC50 […] using nonlinear least squares analysis software (Origin, Microcal Inc, Northampton, Mass.). InsP6 (dodecasodium salt), InsS6 (hexapotassium salt), myo-inositol 1 monophosphate (cyclohexylammonium salt), and myo-inositol were from Sigma Chemical Company (St. Louis, Mo.). Stock solutions were prepared daily in 0.9% NaCl and sterilized by 0.22 μm filtration. InsP6 solutions were adjusted at pH 7.4 with HCl.
as §1

P-selectin [3] = details: cited from earlier work
[4] = molecular target: T3, E-selectin-lg fusion protein (Homo sapiens, UniProt P16581); test: Competition ELISA: binding of E-selectin-Ig to immobilized BSA-sLe^x
T3 construct: Each selectin-lg contains the lectin domain, epidermal growth factor domain, and one (L-selectin-lg), two (P-selectin-lg) or six (E-selectin-lg) complement regulatory repeats; made in house
From the text: as §2, §1

L-selectin [5] = details: cited from earlier work
[6] = system: PMN within the peritoneal cavity; test: Thioglycollate-induced peritoneal inflammation, PMN accumulation; type: in vivo, mice (Balb/c); details: mice, 80 μmol/kg in two i.v. injections, 2 experiments
hemoglobin = details: avian erythrocytes; cited from earlier work
P-selectin [7] = details: cited from earlier work; remark: listed apart in the source
L-selectin [8] = details: cited from earlier work; remark: listed apart in the source
[9] = chelator concentration above 1 mM
[10] = up to a concentration of 1 mM in assay buffer

IC50 ([1]; preliminary competition ELISA, single experiment, read-out: IC50, L-selectin-Ig): 230 ± 90 µM
Molecule: O=P(O)(O)O[C@@H]1[C@@H](O)[C@@H](O)[C@@H](OP(=O)(O)O)[C@H](OP(=O)(O)O)[C@H]1O (relative stereo) [D, L-isomer mixture of Ins1,4,6 P3]

Molecule: O=P(O)(O)O[C@@H]1[C@H](OP(=O)(O)O)[C@H](O)[C@@H](O)[C@H](O)[C@H]1OP(=O)(O)O [1,2,6-triphosphate (IP3), 1,2,6-triphosphate]
inhibition of inflammation (inflammation): modestly inhibit inflammation

Molecule: O=C(O)CN(CCN(CC(=O)O)CC(=O)O)CC(=O)O [EDTA, reference compound]
inhibition profile, P-selectin [2, 9]: same inhibition profile on all three selectins
blocking of P-selectin with chelator [2, 10]: no blocking of any selectin up to a concentration of 1 mM
inhibition profile, L-selectin [1, 9]: same inhibition profile on all three selectins
blocking of L-selectin with chelator [1, 10]: no blocking of any selectin up to a concentration of 1 mM
effect of calcium chelator on P-selectin interaction with sulfatides (P-selectin [3]): largely unaffected
inhibition profile, E-selectin [4, 9]: same inhibition profile on all three selectins
blocking of E-selectin with chelator [4, 10]: no blocking of any selectin up to a concentration of 1 mM
effect of calcium chelator on L-selectin interaction with sulfatides (L-selectin [5]): largely unaffected

activity against P-selectin ([2]; selected assays, in vitro): no activity
activity against L-selectin ([1]; selected assays, in vitro): no activity
Molecule: O=P(O)(O)OC1[C@H](O)[C@H](O)C(O)[C@H](O)[C@H]1O (some centres unmarked) [InsP1, myo-inositol 1 monophosphate, reference compound]

IC50 ([2]; selected assays, in vitro, read-out: IC50, blocking activity against P-selectin): 940 ± 130 µM
IC50 ([1]; selected assays, in vitro, read-out: IC50, blocking activity against L-selectin): 38 ± 17 µM
Molecule: O=P(O)(O)O[C@@H]1[C@@H](OP(=O)(O)O)[C@H](OP(=O)(O)O)[C@H](O)[C@H](OP(=O)(O)O)[C@H]1OP(=O)(O)O [InsP5, inositol pentakisphosphate]
reduced peritoneal influx of PMN (inhibition) [6]: 48±6%
effect on hemoglobin affinity for oxygen (hemoglobin): increasing its affinity for oxygen

Molecule: O=P(O)(O)O[C@@H]1[C@@H](O)[C@H](OP(=O)(O)O)[C@@H](OP(=O)(O)O)[C@H](O)[C@@H]1O [L-isomer of Ins1,4,5 P3]
inhibition of L-selectin-Ig binding ([1]; preliminary competition ELISA, up to 700 μM): no inhibition at concentrations up to 700 μM

IC50 ([4]; BSA-sLe^x competition ELISA, solution-phase sLe^x): 510 ± 60 µM
Molecule: CC(=O)N[C@H]1[C@H]([C@H](O)[C@H](O)CO)O[C@@](O[C@H]2[C@@H](O)[C@@H](CO)O[C@@H](O[C@H]3[C@H](O[C@@H]4O[C@@H](C)[C@@H](O)[C@@H](O)[C@@H]4O)[C@@H](NC(C)=O)C(O)O[C@@H]3CO)[C@@H]2O)(C(=O)O)C[C@@H]1O (some centres unmarked) [sLe^x, Neu5Acα2-3Galβ1-4(Fucα1-3)GIcNAc, reference compound]
blocking of L-selectin-Ig binding ([1]; BSA-sLe^x competition ELISA): failed to block L-selectin binding at concentrations up to 1 mM

Molecule: fucoidan
P-selectin interaction / dependent adhesion (P-selectin [7]): interact with both P- and L-selectin
L-selectin interaction / dependent adhesion (L-selectin [8]): L-selectin adhesion can be blocked; also recorded: interact with both P- and L-selectin

Molecule: heparin
P-selectin interaction / dependent adhesion (P-selectin [7]): interact with both P- and L-selectin
L-selectin interaction / dependent adhesion (L-selectin [8]): interact with both P- and L-selectin
